Values of other authors, collected in patent US20220233487A1, “PREPARATION FOR USE IN WEIGHT MANAGEMENT COMPRISING OMEGA-3 FATTY ACID SALTS AND BASIC AMINO ACIDS” (Evonik Operations GmbH, priority 2019, published 2022).

- pKa-values: pKCOOH: pKCOOH: 2.0
Compound: N=C(N)NCCC[C@H](N)C(=O)O [L-arginine]
